The values that follow come from article PMC11040327 (RSC Advances, 2024).

Data set [1] deals with HCT-116 cells. The data set is described as follows: MTT cytotoxicity assay against HCT-116 cells. The data set is classed as cell-based. In general terms: Tetrazolium assays rely on reduction of a dye to a coloured formazan, in cell work by metabolically active cells.
Another data set has as its target VEGFR2 (Homo sapiens, UniProt P35968). In words: VEGFR2 kinase inhibition assay. The data set is classed as biochemical. To be noted: for inhibition at 10 µM: read-out: VEGFR2 % Of inhibition at [10 μM], 10 μM compound.
Data set [2] has as its system HCT-116 cells. The data set is described as follows: Annexin V/PI flow cytometry for apoptosis in HCT-116 cells. To be noted: treated at IC50 for 48 h. The data set is classed as cell-based. On the technique in general: Flow cytometry measures light scatter and fluorescence of single cells or particles in a stream.
Setting [3] is: Homo sapiens, HCT-116, 48 h, read-out: IC50 (μM) ± SD, cytotoxicity against HCT-116 cells, HCT-116 cells, MTT assay, 48 h, three independent trials.

Read-outs that look alike come from different tables or passages of the source.

VEGFR2, sequence (P35968 20-1356): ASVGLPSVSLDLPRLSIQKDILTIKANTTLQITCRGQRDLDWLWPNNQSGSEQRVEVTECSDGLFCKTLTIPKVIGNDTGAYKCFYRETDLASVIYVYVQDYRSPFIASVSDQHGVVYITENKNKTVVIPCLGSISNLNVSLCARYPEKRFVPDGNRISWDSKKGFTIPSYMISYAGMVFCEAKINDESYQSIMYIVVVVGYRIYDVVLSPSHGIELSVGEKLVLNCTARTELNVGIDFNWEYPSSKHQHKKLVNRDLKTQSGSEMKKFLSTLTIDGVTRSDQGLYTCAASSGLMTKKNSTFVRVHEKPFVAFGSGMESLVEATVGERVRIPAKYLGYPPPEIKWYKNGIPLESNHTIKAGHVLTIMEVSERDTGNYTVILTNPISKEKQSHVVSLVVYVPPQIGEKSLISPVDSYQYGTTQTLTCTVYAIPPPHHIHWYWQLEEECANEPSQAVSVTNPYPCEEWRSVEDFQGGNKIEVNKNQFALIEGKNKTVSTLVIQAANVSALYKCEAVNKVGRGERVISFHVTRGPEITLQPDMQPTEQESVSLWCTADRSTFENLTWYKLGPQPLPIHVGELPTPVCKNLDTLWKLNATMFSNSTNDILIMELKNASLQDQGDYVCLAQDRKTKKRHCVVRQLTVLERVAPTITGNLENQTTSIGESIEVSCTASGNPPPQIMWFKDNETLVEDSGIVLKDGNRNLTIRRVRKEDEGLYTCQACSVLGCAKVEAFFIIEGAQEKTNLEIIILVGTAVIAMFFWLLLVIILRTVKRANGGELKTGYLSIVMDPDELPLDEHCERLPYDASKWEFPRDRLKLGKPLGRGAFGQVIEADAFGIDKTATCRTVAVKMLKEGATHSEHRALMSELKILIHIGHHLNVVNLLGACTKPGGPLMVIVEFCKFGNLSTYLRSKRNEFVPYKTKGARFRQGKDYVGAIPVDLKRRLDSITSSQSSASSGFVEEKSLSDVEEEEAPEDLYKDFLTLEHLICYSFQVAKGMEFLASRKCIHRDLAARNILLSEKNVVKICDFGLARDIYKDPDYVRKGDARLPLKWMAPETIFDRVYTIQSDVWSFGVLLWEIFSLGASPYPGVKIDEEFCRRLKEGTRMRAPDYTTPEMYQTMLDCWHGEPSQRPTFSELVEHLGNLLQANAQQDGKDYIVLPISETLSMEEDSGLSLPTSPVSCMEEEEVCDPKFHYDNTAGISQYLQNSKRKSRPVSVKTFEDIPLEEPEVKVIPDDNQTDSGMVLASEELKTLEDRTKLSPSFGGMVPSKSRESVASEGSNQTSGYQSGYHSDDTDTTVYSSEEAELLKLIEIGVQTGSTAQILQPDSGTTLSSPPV

On to `NNC(=O)CCn1nc(Cc2ccccc2)c2ccccc2c1=O` [Compound 5, 3-(4-benzyl-1-oxophthalazin-2(1H)-yl) propanehydrazide], for which, in the data set with HCT-116 cells [1] (setting [3]), the IC50 was 13.8 ± 0.2 µM.
In the case of `CNC(=O)c1cc(Oc2ccc(NC(=O)Nc3ccc(Cl)c(C(F)(F)F)c3)cc2)ccn1` [Sorafenib, reference compound], the IC50 was determined as 2.93 µM in the data set on HCT-116 cells [1] (setting [3]) and 3.23 ± 0.03 µM in the data set on HCT-116 cells [1] (read-out: IC50 (μM) ± SD, cytotoxicity against HCT-116 cells, HCT-116 cells, MTT assay, 48 h, three independent trials).
Regarding `O=C(CCn1nc(Cc2ccccc2)c2ccccc2c1=O)N1CCOCC1` [Compound 7b, 4-benzyl-2-(3-morpholino-3-oxopropyl) phthalazin-1(2H)-one], the IC50 with HCT-116 cells [1] (setting [3]) was determined as 24.3 ± 1.5 µM.
Take `CCCCNC(=O)CCn1nc(Cc2ccccc2)c2ccccc2c1=O` [Compound 7f, 3-(4-benzyl-1-oxophthalazin-2(1H)-yl)-N-butylpropanamide]: in the data set with HCT-116 cells [1] (setting [3]), the IC50 is 18.8 ± 0.6 µM.
As to `O=C(CCn1nc(Cc2ccccc2)c2ccccc2c1=O)N1CCCCC1` [Compound 7d, 4-benzyl-2-(3-oxo-3-(piperidin-1-yl)propyl) phthalazin-1(2H)-one], the inhibition at 10 µM on VEGFR2 was found to be 97.6%. Also, the “apoptosis induction, fold versus untreated cells” value in the data set on HCT-116 cells [2] was 23.6 fold.
`COc1ccc(/C=N\NC(=O)CNC(=O)CCn2nc(Cc3ccccc3)c3ccccc3c2=O)cc1` [Compound 13c, (Z)-3-(4-benzyl-1-oxophthalazin-2(1H)-yl)-N-(2-(2-(4-methoxybenzylidene) hydrazinyl)-2-oxoethyl)propanamide]: the IC50 in the data set on HCT-116 cells [1] (setting [3]) stood at 0.64 ± 0.05 µM; against VEGFR2 (VEGFR2 IC50 [nM] ± SD, five concentrations, three replicates) it was 19.8 ± 0.6 nM. For the same compound, the “VEGFR2 % Of inhibition at [10 μM]” value on VEGFR2 (10 μM compound, 10 µM) turned out to be 96.4 ± 2.8%. For the same compound, at VEGFR2, the inhibition at 10 µM turned out to be 95.2%.
With `O=C(CCn1nc(Cc2ccccc2)c2ccccc2c1=O)NCC(=O)N/N=C\c1ccc([N+](=O)[O-])cc1` [Compound 13a, (Z)-3-(4-benzyl-1-oxophthalazin-2(1H)-yl)-N-(2-(2-(4-nitrobenzylidene) hydrazinyl)-2-oxoethyl)propanamide], the IC50 in the data set with HCT-116 cells [1] (setting [3]) stood at 45.7 ± 1.8 µM.
On to `C=CCNC(=O)CCn1nc(Cc2ccccc2)c2ccccc2c1=O` [Compound 7a, N-allyl-3-(4-benzyl-1-oxophthalazin-2(1H)-yl)propanamide], for which the half-maximal inhibitory concentration (IC50) in the data set with HCT-116 cells [1] (setting [3]) stood at 34.8 ± 1.9 µM.

Usually IC50 stands for the concentration that gives 50% inhibition. As usually defined, the inhibition is the percentage by which the read-out fell short of the control.
